Source: patent EP3628044B1, “PYRROLO[2,3-C]PYRIDINES AND RELATED ANALOGS AS LSD-1 INHIBITORS” (The Regents of The University of Michigan, priority 2017, dated 2018)

Target: T1, Human recombinant LSD1 protein (Homo sapiens, UniProt O60341)
T1 construct: purchased Active Motif (Carlsbad, CA); host or cells: E. coli
Test: LSD1 enzymatic activity assay (AlphaLISA, Biotin-H3K4Me peptide substrate)
Assay type: biochemical
Conditions: 4 nM LSD1, 80 nM Biotin-H3K4Me peptide substrate, 1% DMSO, compounds tested as the TFA salt
Procedure: Human recombinant LSD1 protein expressed in E. coli cells was purchased from Active Motif (Carlsbad, CA). Biotin-labeled Histone H3K4Me peptide (residues 1-21 with Lys 4 monomethylated) substrate was purchased from Anaspec (Fremont, CA). Enzymatic activity was assessed using the AlphaLISA technology from Perkin Elmer Life Sciences (Waltham, MA). 2.5 µL of compound solution and 5 µL of LSD1 solutions in the assay buffer (50mM Tris, pH 9.0, 50mM NaCl with 0.01% Tween20 and 1mM DTT added right before the assay) were added into a white low volume 384 well microtiter plate. This mixture solution was incubated for 15 minutes with gentle shaking at room temperature. Demethylation reaction was initiated by adding 2.5 µL of Biotin-H3K4Me peptide substrate solution in the assay buffer. Final concentrations of LSD1, Biotin-H3K4Me peptide substrate, and DMSO were 4 nM, 80 nM, and 1%, respectively. […] Plates were read on a BMG CLARIOStar multimode plate reader from BMG Labtech (Ortenberg, Germany) with an excitation wavelength of 680 nm and emission wavelength of 615 nm. IC50 values of inhibitors were obtained by fitting the fluorescence intensity vs inhibitor concentrations in a sigmoidal dose-response curve (variable slope) with a non-linear regression using Prism 7 (La Jolla, CA). […]

SMILES	IC50 [nM]
CN(C)c1ccc(-c2ncc3c(ccn3CC3CCNCC3)c2-c2ccc(C#N)cc2)cc1 [compound 85, 4-(5-(4-(dimethylamino)phenyl)-1-(piperidin-4-ylmethyl)-1H-pyrrolo[2,3-c]pyridin-4-yl)benzonitrile]	23.1
